Measured values as given in US4243678A, “Acylhydrocarbylaminoalkanoic acids, compositions and uses” (Byk Gulden Lomberg Chemische Fabrik GmbH, priority 1977, dated 1981).
Where two headings read alike, the source gives them in different places.

Assays:
[1] = Determination of toxicity (lethal action on the mouse after intraperitoneal application); format: in vivo; settings: in vivo, ip
Experimental: The toxicity investigations are carried out on female NMRI mice (body weight 22 to 26 g). The animals (5 animals per dose) are given food and water ad lib. Different doses of the substances are administered intraperitoneally. The duration of observation is 14 days. The LD50, i.e. the dose at which 50% of the animals die, is determined graphically from the dose/effect curve.

[2] = Influence on bile secretion (choleresis) of the narcotized rat; format: in vivo, rat (male Sprague-Dawley); settings: in vivo, LD50 mouse i.p. / ED50 rat i.d.
Source text: (§1) Male Sprague-Dawley rats (body weight from 250 to 300 g) are narcotized with 1.2 g/kg urethane i.m. Then the abdominal cavity is opened medially, the bile duct is ligatured shortly above the place where it leads into the duodenum and also near to the hepatic duct, and both sections are catheterized towards the liver.
(§2) As in the rat all the pancreatic ducts lead out into the central section of the bile duct; it is possible in this way to discharge the pancreatic secretion separately from the distal (ligatured) section and the bile separately from the proximal section of the bile duct.
(§3) The quantities of pancreatic juice and bile juice obtained are measured at intervals of 30 minutes over a period from 2 hours before to 3 hours after the intraduodenal (V. jugularis externa) administration of the compounds to be tested (quantity of liquid administered 5 ml/kg).
(§4) The body temperature of the animals is maintained at 36° to 38° C. by means of electric blankets and radiation; the temperature is monitored rectally.
(§5) The liquid volumes of the 30-minute fractions after the administration of the substance are related in each case to the quantity of bile or pancreatic juice secreted prior to the application of the substance (=100%, mean of the last two measurements). The maximum percentage increase in the pancreatic or bile secretion is represented in dependence upon dose, and from this the ED50 is determined by interpolation.

bile secretion = test: as above; format: in vivo, rat (male Sprague-Dawley); settings: 0.5 h, liquid volume
Source text: as §1, §2, §3, §4, §5

[3] = Antihepatotoxic effect: duration of hexobarbital sleep of the rat after liver damage by CCl4; settings: rat, in vivo
Experimental: (§6) The compounds to be tested are administered 1 hour prior to the administration of CCl4 orally in a liquid volume of 10 ml/kg.
(§7) The antihepatotoxic effect of the compounds to be tested (sodium salts in aqueous solution) is determined by the reduction of the prolongation of sleeping period caused by the CCl4 liver cell damage in the groups treated, as compared with the prolongation of the sleeping period of the CCl4 control group (=100%). […]

liver damage by CCl4 = test: as above; settings: Rattus norvegicus, po; for ED25: read-out: ED25 antihepatotoxic effect (shortens hexobarbital narcosis by 25%)
Experimental: as §6, §7

[4] = Influence on pancreatic secretion of the narcotized rat; format: in vivo, rat (male Sprague-Dawley); settings: in vivo, LD50 mouse i.p. / ED50 rat i.d.
Source text: as §1, §2, §3, §4, §5

pancreatic secretion = test: as above; format: in vivo, rat (male Sprague-Dawley); settings: 0.5 h
Source text: as §1, §2, §3, §4, §5

[5] = Antiulcerogenic (stomach-protective) action, pylorus ligature and acetylsalicylic acid; format: in vivo, rat (female); settings: in vivo; LD50 mouse i.p. / ED50 rat i.d.; Table IV; read-out: TQ (LD50/ED50), antiulcerogenic action
Experimental: (§8) The ulcer provocation is carried out on rats which have been made to fast for 24 hours (female, 180 to 200 g) by ligature of the pylorus (under ether narcosis) and the oral application of 100 mg/10 ml/kg acetylsalicylic acid. The administration of the substances was carried out intraduodenally (2.5 ml/kg) immediately after the ligature of the pylorus. The closure of the wound was carried out by means of Michel clamps. 4 hours after this, the animals were autopsied (while inebriated with ether) by dislocation of the atlas, and the stomach was resected. The stomach, opened longitudinally, is fixed on a cork board and, using a stereomicroscope with an enlargement of 10×, the number and size (=diameter) of any ulcers present were determined. The product of the degree of severity (according to the following scale of points) and the number of ulcers was used as the individual ulcer index.
(§9) As a measure of antiulcerogenic effect the reduction in the mean ulcer index of each treated group, as compared with that of the control group (=100%), was used.

stomach ulcer = test: as above; format: in vivo, rat (female); settings: 4 h; rat, intraduodenally; Table IV; read-out: ED50 antiulcerogenic action (dose which reduces the mean ulcer index by 50%)
Experimental: as §8, §9

[6] = Table II, read-out: TQ (LD50/ED50), bile secretion
[7] = narcotized rat, i.d., 30 min fraction, Table II, read-out: ED50 bile secretion (dose which brings about an increase in the bile secretion by a maximum of 50%)
[8] = TQ (LD50/ED50), antihepatotoxic effect, LD50 mouse i.p. / ED50 rat p.o., Table III
[9] = read-out: ED50 antihepatotoxic effect (dose which shortens the hexobarbital narcosis by 50%)
[10] = Table I, read-out: TQ (LD50/ED50), pancreatic secretion
[11] = Rattus norvegicus, read-out: ED50 pancreatic secretion (dose which brings about an increase in the pancreatic secretion by a maximum of 50%)
[12] = Table VI, read-out: TQ (LD50/ED50), bile secretion
[13] = narcotized rat i.d., 30 min fraction, Table VI, read-out: ED50 bile secretion (dose which brings about an increase in the bile secretion by a maximum of 50%)
[14] = Table VII, read-out: TQ [LD50/ED50], pancreatic secretion
[15] = narcotized rat, i.d., liquid volume, 30 min fraction, Table VII, read-out: ED50 pancreatic secretion (dose which brings about an increase in pancreatic secretion of a maximum of 50%)
[16] = read-out: ED50 antihepatotoxic effect (shortens hexobarbital narcosis by 50%)
[17] = TQ LD50/ED25, antihepatotoxic effect, LD50 mouse i.p. / ED25 rat p.o., Table V
[18] = TQ LD50/ED50, antihepatotoxic effect, LD50 mouse i.p. / ED50 rat p.o., Table V

SMILES	LD50 at 336 h ([1]; mouse, Table I) [mg/kg]	selectivity ratio [2, 6]	ED50 (bile secretion; [7]) [mg/kg]	selectivity ratio [3, 8]	ED50 (liver damage by CCl4; [9]) [mg/kg]	selectivity ratio [4, 10]	ED50 (pancreatic secretion; [11]) [mg/kg]	further results
O=C(O)CCCN(C(=O)c1ccc(Cl)cc1)C(Cc1ccccc1)c1ccccc1 (stereo not shown) [Serial No. 17, N-(p-chloro)benzoyl-4-[(1,2-diphenylethyl)amino]butyric acid]	160	32	5	16	10	~160	~1	
COc1ccc(CCN(CCCC(=O)O)C(=O)c2ccc(Cl)cc2)cc1OC [Serial No. 9, N-(p-chloro)benzoyl-4-homoveratrylaminobutyric acid]	780	43	18	7.8	100	156	5	
CCC(C)(C)N(CCCC(=O)O)C(=O)c1ccc(Cl)cc1Cl [Serial No. 11, N-(2,4-dichloro)benzoyl-4-[(1,1-dimethylpropyl)amino]butyric acid]		32	6					LD50 at 336 h ([1]; mouse, Table II): 190 mg/kg
C#CC(CC)(CC)N(CCCC(=O)O)C(=O)c1ccc(Cl)cc1 [Serial No. 4, N-(p-chloro)benzoyl-4-[(3-ethyl-1-pentyn-3-yl)amino]butyric acid]		~40	~5					LD50 at 336 h ([1]; mouse, Table II): 200 mg/kg
CC(C)(C)N(CCCC(=O)O)C(=O)c1ccc(Cl)cc1 [Serial No. 2, N-(p-chloro)benzoyl-4-(tert.-butylamino)butyric acid]		57	15					LD50 at 336 h ([1]; mouse, Table II): 850 mg/kg
CC(C)(C)CC(C)(C)N(CCCC(=O)O)C(=O)c1ccc(F)cc1 [Serial No. 16, N-(p-fluoro)benzoyl-4-(1,1,3,3-tetramethylbutyl)aminobutyric acid]	400	57	7			~40	~10	
C#CC1(N(CCCC(=O)O)C(=O)c2ccc(Cl)cc2)CCCCC1 [Serial No. 5, N-(p-chloro)benzoyl-4-[(1-ethynylcyclohexyl-1)-amino]butyric acid]	190	32	6			95	2	
CC(c1ccccc1)N(CCCC(=O)O)C(=O)c1ccc(Cl)cc1 (racemic) [Serial No. 10, N-(p-chloro)benzoyl-4-(1-phenylethylamino)butyric acid]	1200	~80	~15	~120	~10	~60	~20	
COc1ccc(Cl)cc1C(=O)N(CCCC(=O)O)c1ccc(OC)c(-c2ccccc2)c1 [Serial No. 36, 4-[2-methoxy-5-chloro-N-(6-methoxybiphenyl-3-yl)benzamido]butyric acid]								LD50 at 336 h ([1]; mouse i.p., Table VI): 190 mg/kg; selectivity ratio [2, 12]: 190; ED50 (bile secretion; [13]): 1 mg/kg; selectivity ratio [4, 14]: 38; ED50 (pancreatic secretion; [15]): 5 mg/kg
COc1cc(C(=O)N(CCCC(=O)O)c2cccc3ccccc23)cc(OC)c1OC [Serial No. 40, 4-{3,4,5-trimethoxy-[N-(α-naphthyl)]benzamido}butyric acid]								LD50 at 336 h ([1]; mouse i.p., Table XI): 360 mg/kg; selectivity ratio ([2]; Table XII, read-out: TQ LD50/ED50, bile secretion): 45; ED50 (bile secretion; narcotized rat i.d., 30 minute fraction, Table XII, read-out: ED50 bile secretion (dose which brings about an increase in bile secretion by a maximum of 50%)): 8 mg/kg; selectivity ratio ([3]; TQ LD50/ED25, antihepatotoxic effect, LD50 mouse i.p. / ED25 rat p.o., Table XI): 21.2; selectivity ratio ([3]; TQ LD50/ED50, antihepatotoxic effect, LD50 mouse i.p. / ED50 rat p.o., Table XI): ≤ 12; ED25 (liver damage by CCl4): 17 mg/kg; ED50 (liver damage by CCl4; [16]): ≥ 30 mg/kg
CC=CC(=O)N(CCCC(=O)O)c1ccccc1-c1ccccc1 [Serial No. 27, 4-[N-(biphenyl-2-yl)crotonoylamido]butyric acid]								LD50 at 336 h ([1]; mouse, Table IV): 300 mg/kg; selectivity ratio [2, 12]: 30; ED50 (bile secretion; [13]): 10 mg/kg; selectivity ratio [3, 17]: 188; selectivity ratio [3, 18]: 107; ED25 (liver damage by CCl4): 1.6 mg/kg; ED50 (liver damage by CCl4; [16]): 2.8 mg/kg; selectivity ratio [5]: ~5.5; ED50 (stomach ulcer): ~55 mg/kg
CC(=O)N(CCCC(=O)O)C(c1ccccc1)c1ccccc1 [Serial No. 14, N-acetyl-4-benzhydrylaminobutyric acid]	1100	220	5	110	10	~220	~5	
CC(=O)N(CCCC(=O)O)c1ccccc1-c1ccccc1 [Serial No. 22, 4-[N-(biphenyl-2-yl)acetamido]butyric acid]								LD50 at 336 h ([1]; mouse, Table IV): 750 mg/kg; selectivity ratio [2, 12]: 93.8; ED50 (bile secretion; [13]): 8 mg/kg; selectivity ratio [3, 17]: > 250; selectivity ratio [3, 18]: 50; ED25 (liver damage by CCl4): < 3 mg/kg; ED50 (liver damage by CCl4; [16]): 15 mg/kg; selectivity ratio [5]: 13.6; ED50 (stomach ulcer): 55 mg/kg; selectivity ratio [4, 14]: ~375; ED50 (pancreatic secretion; [15]): ~2 mg/kg
